ChEMBL document CHEMBL5241114, “A comprehensive review of BET-targeting PROTACs for cancer therapy” (Bioorg Med Chem, 2022)
Each block holds one compound with its values, some of them ahead of it.

Experiments:
MV4-11 [1] = assay: Antiproliferative activity against human MV4-11 cells assessed as cell growth inhibition measured after […] by Cell Titre Glo Luminescent assay; type: functional, cell-based
EOL1 = assay: Antiproliferative activity against human EOL1 cells assessed as inhibition of cell growth; type: functional, cell-based
HL-60 = assay: Antiproliferative activity against human HL-60 cells assessed as inhibition of cell growth; type: functional, cell-based
Caspase-3/Caspase-7 = biological target: T1, Caspase-3/Caspase-7 (Homo sapiens, UniProt P42574+P55210); assay: Activation of caspase 3/7 in human 22Rv1 cells by Caspase-Glo reagent based analysis; type: cell-based
T1 sequence (P42574 whole entry): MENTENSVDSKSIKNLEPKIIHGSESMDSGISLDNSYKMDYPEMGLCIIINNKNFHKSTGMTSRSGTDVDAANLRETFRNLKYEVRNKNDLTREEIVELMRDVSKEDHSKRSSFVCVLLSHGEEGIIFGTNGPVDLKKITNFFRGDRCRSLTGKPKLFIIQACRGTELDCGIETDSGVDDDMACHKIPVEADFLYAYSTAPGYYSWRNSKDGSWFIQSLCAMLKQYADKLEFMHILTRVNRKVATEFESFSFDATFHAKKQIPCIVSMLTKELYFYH
T1 sequence (P55210 whole entry): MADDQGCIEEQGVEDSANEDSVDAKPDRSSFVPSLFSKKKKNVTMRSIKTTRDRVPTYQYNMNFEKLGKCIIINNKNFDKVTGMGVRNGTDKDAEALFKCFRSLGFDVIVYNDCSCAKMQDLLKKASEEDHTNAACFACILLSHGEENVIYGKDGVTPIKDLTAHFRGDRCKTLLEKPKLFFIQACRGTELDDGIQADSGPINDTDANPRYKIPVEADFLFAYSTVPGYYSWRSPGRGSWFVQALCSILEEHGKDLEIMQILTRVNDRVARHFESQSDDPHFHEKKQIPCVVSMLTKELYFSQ

[2] = biological target: T2, Bromodomain-containing protein 4 (Homo sapiens, UniProt O60885); assay: Induction of BRD4 degradation in human HeLa cells incubated for 24 hrs by Western blot analysis; type: cell-based
[3] = biological target: T2, Bromodomain-containing protein 4; assay: Induction of BRD4 degradation in human HEK293T cells; type: cell-based
[4] = biological target: T2, Bromodomain-containing protein 4; assay: Induction of BRD4 degradation in human HEK293T cells at 10 uM measured at 6 hrs relative to control; type: cell-based
MCF7 [5] = assay: Antitumor activity against human MCF7 cells xenografted in mouse assessed as tumor growth inhibition; type: functional
[6] = biological target: T2, Bromodomain-containing protein 4; assay: Induction of BRD4 degradation in human MCF7 cells incubated for 72 hrs by Western blot analysis; type: cell-based
[7] = biological target: T2, Bromodomain-containing protein 4; assay: Induction of BRD4 degradation in human MCF7 cells incubated for 72 hrs by Western blot analysis relative to control; type: cell-based
[8] = Cytotoxicity against human MCF10 cells assessed as measuring cell viability incubated for 48 hrs by CCK-8 assay; type: toxicity, cell-based
MCF7 [9] = assay: Cytotoxicity against human MCF7 cells assessed as measuring cell viability incubated for 48 hrs by CCK-8 assay; type: toxicity, cell-based; details: MCF7, 48 h
CWR22R [10] = assay: Antitumor activity against human 22Rv1 cells xenografted in Nu/Nu mouse assessed as tumor growth inhibition at 30 mg/kg, sc; type: functional; details: read-out: TGI
[11] = biological target: T2, Bromodomain-containing protein 4; assay: Induction of BRD4 degradation in human EOL1 cells relative to control; type: cell-based
[12] = biological target: T2, Bromodomain-containing protein 4; assay: Induction of BRD4 degradation in human EOL1 cells; type: cell-based
BXPC-3 = assay: Antiproliferative activity against human BXPC-3 cells assessed as inhibition of cell growth incubated for 72 hrs by MTT assay; type: functional, cell-based; details: BXPC-3, 72 h
[13] = biological target: T3, Bromodomain-containing protein 2 (Homo sapiens, UniProt P25440); assay: Induction of BRD2 degradation in human 22Rv cells incubated for 16 hrs by Western blot analysis; type: cell-based; details: 22rv1
T3 sequence (P25440 whole entry): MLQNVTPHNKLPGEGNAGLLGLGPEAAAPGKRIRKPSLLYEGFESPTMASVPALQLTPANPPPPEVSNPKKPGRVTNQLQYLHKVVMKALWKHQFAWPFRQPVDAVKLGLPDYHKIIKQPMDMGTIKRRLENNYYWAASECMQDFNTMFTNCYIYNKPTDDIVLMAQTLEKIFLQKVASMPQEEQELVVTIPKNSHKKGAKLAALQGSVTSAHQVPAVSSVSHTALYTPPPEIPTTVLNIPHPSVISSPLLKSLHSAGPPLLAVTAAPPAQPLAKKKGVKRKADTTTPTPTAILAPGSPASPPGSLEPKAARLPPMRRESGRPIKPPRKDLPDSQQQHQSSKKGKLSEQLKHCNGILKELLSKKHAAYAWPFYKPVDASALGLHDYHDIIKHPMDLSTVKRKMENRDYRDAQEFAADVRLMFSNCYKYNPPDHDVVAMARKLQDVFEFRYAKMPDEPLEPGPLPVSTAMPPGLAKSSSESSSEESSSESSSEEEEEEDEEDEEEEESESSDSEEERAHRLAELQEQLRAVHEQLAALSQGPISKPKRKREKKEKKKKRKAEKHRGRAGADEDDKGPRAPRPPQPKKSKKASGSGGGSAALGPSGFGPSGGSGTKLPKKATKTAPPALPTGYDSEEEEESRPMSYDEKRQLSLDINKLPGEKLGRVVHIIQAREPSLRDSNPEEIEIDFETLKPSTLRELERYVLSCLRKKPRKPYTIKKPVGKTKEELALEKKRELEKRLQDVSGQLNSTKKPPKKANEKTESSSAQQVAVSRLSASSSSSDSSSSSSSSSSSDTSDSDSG

[14] = biological target: T3, Bromodomain-containing protein 2; assay: Induction of BRD2 degradation in human VCaP cells incubated for 16 hrs by Western blot analysis; type: cell-based
[15] = biological target: T3, Bromodomain-containing protein 2; assay: Induction of BRD2 degradation in human LNCaP-95 cells incubated for 16 hrs by Western blot analysis; type: cell-based
[16] = biological target: von Hippel-Lindau disease tumor suppressor/Bromodomain-containing protein 2 (Homo sapiens, UniProt P25440+P40337); assay: Protac activity at BRD2/VHL-bound E3 ligase in human 22Rv1 cells assessed as reduction c-Myc level incubated for 24 hrs by Western blot analysis; type: cell-based
Chain of von Hippel-Lindau disease tumor suppressor/Bromodomain-containing protein 2 (P25440 whole entry): as above
Chain of von Hippel-Lindau disease tumor suppressor/Bromodomain-containing protein 2 (P40337 whole entry): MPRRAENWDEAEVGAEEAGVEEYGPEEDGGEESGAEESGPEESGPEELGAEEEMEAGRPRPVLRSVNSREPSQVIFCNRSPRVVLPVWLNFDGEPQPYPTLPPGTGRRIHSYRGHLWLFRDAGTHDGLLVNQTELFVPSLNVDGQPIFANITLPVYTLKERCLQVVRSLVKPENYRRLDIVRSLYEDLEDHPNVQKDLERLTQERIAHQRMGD

[17] = biological target: T2, Bromodomain-containing protein 4; assay: Binding affinity to BRD4 BD2 (unknown origin) assessed as dissociation constant by isothermal titration calorimetry assay
[18] = biological target: T3, Bromodomain-containing protein 2; assay: Binding affinity to BRD2 BD1 (unknown origin) assessed as dissociation constant by isothermal titration calorimetry assay
[19] = biological target: von Hippel-Lindau disease tumor suppressor (Homo sapiens, UniProt P40337); assay: Binding affinity to VHL (unknown origin) assessed as dissociation constant by isothermal titration calorimetry assay
Chain of von Hippel-Lindau disease tumor suppressor (P40337 whole entry): as above

[20] = biological target: Bromodomain-containing protein 3 (Homo sapiens, UniProt Q15059); assay: Induction of BRD3 degradation in human HeLa cells measured after 4 hrs; type: cell-based
Chain of Bromodomain-containing protein 3 (Q15059 whole entry): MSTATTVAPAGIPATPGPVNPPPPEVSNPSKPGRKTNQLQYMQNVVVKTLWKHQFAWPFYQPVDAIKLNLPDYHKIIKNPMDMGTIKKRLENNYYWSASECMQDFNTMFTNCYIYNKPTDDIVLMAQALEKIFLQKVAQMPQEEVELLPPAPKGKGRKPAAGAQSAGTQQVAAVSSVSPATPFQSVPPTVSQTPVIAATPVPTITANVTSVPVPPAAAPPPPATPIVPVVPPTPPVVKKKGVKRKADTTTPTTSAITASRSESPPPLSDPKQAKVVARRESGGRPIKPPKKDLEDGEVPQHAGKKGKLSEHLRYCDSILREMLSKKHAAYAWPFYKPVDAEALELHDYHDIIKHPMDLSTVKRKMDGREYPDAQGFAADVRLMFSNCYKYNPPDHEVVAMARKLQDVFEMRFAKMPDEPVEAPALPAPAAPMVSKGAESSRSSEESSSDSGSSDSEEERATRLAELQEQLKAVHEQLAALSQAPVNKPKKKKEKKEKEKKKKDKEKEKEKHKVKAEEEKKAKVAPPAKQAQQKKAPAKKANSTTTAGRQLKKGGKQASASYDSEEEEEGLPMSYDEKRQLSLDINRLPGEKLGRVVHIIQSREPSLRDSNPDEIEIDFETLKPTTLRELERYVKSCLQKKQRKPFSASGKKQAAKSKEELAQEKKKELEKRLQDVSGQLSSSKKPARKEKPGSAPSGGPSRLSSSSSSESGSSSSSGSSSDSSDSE

[21] = biological target: T2, Bromodomain-containing protein 4; assay: Induction of BRD4 degradation in human HeLa cells measured after 4 hrs; type: cell-based
[22] = biological target: T2, Bromodomain-containing protein 4; assay: Induction of BRD4 degradation in human 22Rv1 cells assessed as downregulation of c-Myc expression at 250 nM measured after 2 hrs relative to control; type: cell-based
CWR22R [23] = assay: Antiproliferative activity against human 22Rv1 cells assessed as reduction in cell viability incubated for 48 to 72 hrs by Celltiter-Glo cell viability assay; type: functional, cell-based
MV4-11 [24] = assay: Antiproliferative activity against human MV4-11 cells assessed as reduction in cell viability incubated for 48 to 72 hrs by Celltiter-Glo cell viability assay; type: functional, cell-based
RS4-11 [25] = assay: Antiproliferative activity against human RS4-11 cells assessed as reduction in cell viability incubated for 72 hrs under light irradiation; type: functional, cell-based; details: RS4-11, light or radiation study
RS4-11 [26] = assay: Antiproliferative activity against human RS4-11 cells assessed as reduction in cell viability incubated for 72 hrs under dark condition; type: functional, cell-based; details: RS4-11, 72 h
[27] = biological target: T2, Bromodomain-containing protein 4; assay: Induction of BRD4 degradation in human HEK293T cells at 20 uM relative to control; type: cell-based

EC50 (MV4-11 [1]): 50.1 nM | IC50 (HL-60): 1.5 nM | EC50 (Caspase-3/Caspase-7): 150 nM
Structure (SMILES): Cc1ncsc1-c1ccc(CNC(=O)[C@@H]2C[C@@H](O)CN2C(=O)[C@@H](NC(=O)COCCOCCOCCNC(=O)C[C@@H]2N=C(c3ccc(Cl)cc3)c3c(sc(C)c3C)-n3c(C)nnc32)C(C)(C)C)cc1
IC50 (EOL1): 1.5 nM

DC50 [2]: 1 nM
Structure (SMILES): Cc1ncsc1-c1ccc(CNC(=O)[C@@H]2[C@@H](F)[C@@H](O)CN2C(=O)[C@@H](NC(=O)COCCOCCOCCNC(=O)C[C@@H]2N=C(c3ccc(Cl)cc3)c3c(sc(C)c3C)-n3c(C)nnc32)C(C)(C)C)cc1

DC50 [3]: 1600 nM | Emax [4]: 80%
Structure (SMILES): Cc1sc2c(c1C)C(c1ccc(Cl)cc1)=N[C@@H](CC(=O)NCCOCCOCCOCCOCCN1CCOc3cc(N(CCC#N)C(=O)CCl)ccc31)c1nnc(C)n1-2

Structure (SMILES): Cc1sc2c(c1C)C(c1ccc(Cl)cc1)=N[C@@H](CC(=O)NCCOCCOCCOCC(=O)NC(C)C(C)(C)C)c1nnc(C)n1-2 (stereo partly drawn)
TGI (MCF7 [5]): 59.8% | DC50 [6]: 22 nM | Emax [7]: 13% | IC50 at 48 h [8]: 670 nM | IC50 (MCF7 [9]): 59.8 nM

Structure (SMILES): Cc1sc2c(c1C)C(c1ccc(Cl)cc1)=N[C@@H](CC(=O)Nc1ccc(O)cc1)c1nnc(C)n1-2 [BIRABRESIB]
inhibition in vivo at 30 mg/kg (CWR22R [10]): 38%

Emax [11]: > 99% | DC50 [12]: 0.03 nM | IC50 (HL-60): 0.03 nM
Structure (SMILES): CCS(=O)(=O)Cc1cc2c(cc1C(=O)NCCCCCCCCCCC(=O)N[C@H](C(=O)N1C[C@@H](O)C[C@H]1C(=O)NCc1ccc(-c3scnc3C)cc1)C(C)(C)C)N(c1ncc(F)cc1F)Cc1c[nH]c3c(=O)n(C)cc-2c13
IC50 (EOL1): 0.02 nM

IC50 (BXPC-3): 1220 nM
Structure (SMILES): CCS(=O)(=O)Nc1ccc(Oc2ccc(F)cc2F)c(-c2cn(C)c(=O)c3[nH]ccc23)c1 [MIVEBRESIB]

DC50 [3]: 810 nM | Emax [4]: 71%
Structure (SMILES): Cc1sc2c(c1C)C(c1ccc(Cl)cc1)=N[C@@H](CC(=O)NCCCNC(=O)CN1CCOc3cc(N(CCC#N)C(=O)CCl)ccc31)c1nnc(C)n1-2

DC50 [13]: < 5 nM | DC50 [14]: < 5 nM | DC50 [15]: < 5 nM | IC50 [16]: < 1 nM | IC50 (HL-60): 1.5 nM | EC50 (Caspase-3/Caspase-7): 90 nM
Structure (SMILES): Cc1ncsc1-c1ccc([C@H](C)NC(=O)[C@@H]2C[C@@H](O)CN2C(=O)[C@@H](NC(=O)COCCCOCCNC(=O)C[C@@H]2N=C(c3ccc(Cl)cc3)c3c(sc(C)c3C)-n3c(C)nnc32)C(C)(C)C)cc1
IC50 (EOL1): 1.5 nM

Kd [17]: 180 nM | Kd [18]: 180 nM | Kd [19]: 47 nM | DC50 [20]: 25 nM | DC50 [21]: 125 nM | Activity [22]: > 90% | EC50 (MV4-11 [24]): 300 nM
Structure (SMILES): Cc1ncsc1-c1ccc2c(c1)OCCOCCOC[C@@H](NC(=O)C[C@H]1N=C(c3ccc(Cl)cc3)c3c(sc(C)c3C)-n3c(C)nnc31)COCCOCCOCC(=O)N[C@@H](C(C)(C)C)C(=O)N1C[C@H](O)C[C@H]1C(=O)NC2
EC50 (CWR22R [23]): 640 nM

EC50 (RS4-11 [25]): 88.5 nM | EC50 (RS4-11 [26]): 610 nM
Structure (SMILES): COc1cc(/N=N/c2cccc3c2CN(C2CCC(=O)NC2=O)C3=O)cc(OC)c1OCC(=O)NCCCCNC(=O)C[C@@H]1N=C(c2ccc(Cl)cc2)c2c(sc(C)c2C)-n2c(C)nnc21 (stereo partly drawn)

Activity [27]: 35%
Structure (SMILES): O=C(CCl)N1CCCc2cc(O)ccc21
